Assay results published in paper PMC10834624, “Estrogen receptor α interaction of zearalenone and its phase I metabolite α-zearalenol in combination with soy isoflavones in hERα-HeLa-9903 cells” (Mycotoxin Research, 2023).
Like-named read-outs stand apart in the source and are kept apart here.

How the values were obtained:
hERα-HeLa-9903 cells [1] = experiment: Sulforhodamine B (SRB) assay, cell protein amount; type: cell-based, human; conditions: 10 µM 4-OH-TAM, 24 h
Procedure: The SRB assay was conducted immediately after the CTB assay. Following the removal of the remaining CTB solution the cells in each well were fixed with 10 µL of a 50% trichloroacetic acid solution in distilled water. The 96-well plates were placed for 1 h into the refrigerator at 4 °C. Upon this cold incubation, the plates were carefully rinsed twice with tap water and then left to dry in a dark surrounding. Once the plates had dried, 50 µL of the SRB solution was pipetted into each well. The dye was left to stain the proteins for 1 h, again in a dark setting at room temperature. Afterwards the dye was rinsed off twice with tap water and twice with a 1% acetic acid solution. […] Once the plates had dried, the SRB solution bound to the protein components of the cells was dissolved in 100 µL of an alkaline Tris base solution (0.30 g tris(hydroxymethyl-) aminomethane solved in 250 mL distilled water) by shaking for 5 min in the plate reader (Victor V3 1240 Multilabel Counter from Perkin Elmer (Waltham/MA, USA) or the Cytation 3 Cell Imaging Multi-Mode Reader from Biotek® (Winooski/VT Vermont, USA)). Subsequently, the absorbance was measured at 570 nm and as for the CTB; the final results were referred to the solvent control (0.1% DMSO) in percentage.

hERα-HeLa-9903 cells [2] = test system: hERα-HeLa-9903 cells
[3] = target: T1, ERα (hERα-HeLa-9903 cells) (Homo sapiens, UniProt P03372); experiment: cell-based; type: cell-based; conditions: for Luciferase induction: 1 nM E2=100%; for induced ERα-dependent luciferase expression in concentrations above: abstract; for concentration at which an increase in luciferase activity was initiated: discussion
T1 construct: host or cells: hERα-HeLa-9903 (modified human cervical HeLa cell line)
Procedure: The assays were performed in 96-well plates following the instructions of the manufacturer (Promega [2007]). Per well, 10,000 hERα-HeLa-9903 cells in assay medium were seeded and grown for 3 h. […] The substances were previously dissolved in DMSO in […] higher concentrations than the tested concentration, followed by dilution in the assay medium. In case of single substance testing and for the solvent control, DMSO was added to reach 0.1% in the final incubation solutions. Concentrations ranged from 0.001 to 100 nM in case of ZEN and its metabolites and 0.001 to 100 µM in case of ISF, with 1:10 dilution steps in between. […] All experiments were performed in technical triplicates and at least five independent biological replicates.
Following the 24-h incubation, the supernatants were discarded and 100 µL of a ONE-Glo™ EX luciferase incubation solution (1:1 dilution of OGL reagent and EMEM (5% CD-FBS)) was added and shaken for 5 min. Subsequently, 90 µL of the supernatant of each well was transferred to a new, white 96-well plate. The luminescence of the white plate was directly measured with a gain of 140 using the Victor V3 1240 Multilabel Counter from Perkin Elmer (Waltham/MA, USA) or the Cytation 3 Cell Imaging Multi-Mode Reader from Biotek® (Winooski/VT, USA).

[4] = test system: firefly luciferase encoding gene (hERα-HeLa-9903 cells); experiment: RT-qPCR of luciferase mRNA; type: cell-based, human; conditions: 10 nM, 24 h
Procedure: For the RT-qPCR, cells (hERα-HeLa-9903) were seeded in assay medium in 12-well plates at a density of 150,000 cells and allowed to grow for 24 h. Incubation solutions contained 0.1% DMSO and the test compounds and compound mixtures at various concentrations. After the same incubation time as the OGL-assay (24 h), cells were washed and subsequently the total RNA was extracted following the RNeasy Mini Kit protocol from Qiagen. The following reverse transcription was performed according to the QuantiTect-Reverse-Transcription manual (Qiagen [2009]) to transcribe 1 µg RNA to cDNA. Then, RT-qPCR was performed using primers for the firefly luciferase encoding gene with the following oligonucleotide sequences for reverse primer 5′-[…]-3′ and forward primer 5′-[…]-3′, as well as the endogenous control primers delta-aminolevulinate synthase (1HS_ALAS1_1_SG, QT00073122), actin beta (Hs_ACTB_1_SG, QT00095431) and glyceraldehyde-3-phosphate dehydrogenase (Hs_GAPDH_1_SG, QT00079247) with SYBR green as fluorescent probe. The amplification the following setting was applied: 95 °C for 2 min, followed by 40 repetition cycles of: 95 °C (15 s), 55 °C (15 s), 72 °C (60 s). […] Quantification was performed according to Livak and Schmittgen ([2001]) using the 2-ΔΔCt method resulting in the depiction of fold-changes in comparison to the solvent control.

[5] = test system: Ishikawa cells, expressing ERα and ERβ; conditions: 0.001–0.01 nM with GEN, DAI or EQ 0.001–0.1 µM; ref Grgic et al. [2022]; cited from earlier work
[6] = single mycoestrogen 100 nM, 24 h

T1 sequence (P03372 whole entry): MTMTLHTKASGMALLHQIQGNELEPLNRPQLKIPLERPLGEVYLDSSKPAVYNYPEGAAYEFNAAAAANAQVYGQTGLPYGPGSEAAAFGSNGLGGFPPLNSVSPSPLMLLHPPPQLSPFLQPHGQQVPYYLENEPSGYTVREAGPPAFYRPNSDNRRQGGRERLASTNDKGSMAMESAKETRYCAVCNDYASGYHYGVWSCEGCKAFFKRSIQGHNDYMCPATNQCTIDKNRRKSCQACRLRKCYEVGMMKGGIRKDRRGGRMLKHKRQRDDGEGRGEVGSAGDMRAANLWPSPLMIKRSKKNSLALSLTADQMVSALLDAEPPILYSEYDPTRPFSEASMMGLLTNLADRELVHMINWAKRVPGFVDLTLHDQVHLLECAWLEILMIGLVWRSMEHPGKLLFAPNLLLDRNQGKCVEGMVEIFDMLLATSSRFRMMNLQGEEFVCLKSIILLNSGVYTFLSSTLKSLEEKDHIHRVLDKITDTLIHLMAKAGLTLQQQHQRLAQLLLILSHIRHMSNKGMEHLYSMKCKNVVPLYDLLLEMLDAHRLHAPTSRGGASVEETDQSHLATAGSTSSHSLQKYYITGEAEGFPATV

## CC/C(=C(\c1ccc(O)cc1)c1ccc(OCCN(C)C)cc1)c1ccccc1 [4-OH-TAM, (Z)-4-hydroxytamoxifen]
hERα-HeLa-9903 cells [1]
  protein content (SRB): tendency to decrease the protein content

## O=c1c(-c2ccc(O)cc2)coc2cc(O)ccc12 [DAI, daidzein]
hERα-HeLa-9903 cells [2]
  metabolic activity (CTB) vs solvent control: no significant difference was observed
[3]
  transcriptional activity compared to E2 after calculating the difference between 4-OH-TAM treated and untreated samples: higher transcriptional activity

## Oc1ccc([C@H]2COc3cc(O)ccc3C2)cc1 [EQ, S-equol]
hERα-HeLa-9903 cells [2]
  metabolic activity (CTB) vs solvent control: no significant difference was observed
[3]; isoflavones, 24 h, read-out: EC50 (sigmoidal dose-response curve fit of luciferase induction)
  EC50: 1600 ± 200 nM
[3]; single isoflavone 10 μM, 24 h
  Luciferase induction: 334%

## O=c1c(-c2ccc(O)cc2)coc2cc(O)cc(O)c12 [GEN, genistein]
hERα-HeLa-9903 cells [2]
  metabolic activity (CTB) vs solvent control: no significant difference was observed

## C[C@H]1CCCC(=O)CCC/C=C/c2cc(O)cc(O)c2C(=O)O1 [ZEN, zearalenone]
[4]
  luciferase mRNA levels: induce luciferase mRNA levels significantly
[5]
  estrogenic response in combination compared to single substances: significantly enhanced the estrogenic response
[3]
  EC50: 24.4 ± 0.4 nM
  induced ERα-dependent luciferase expression in concentrations above: above 1 nM
  concentration at which an increase in luciferase activity was initiated: 0.1 nM
[3]; [6]
  Luciferase induction: 86%

## C[C@H]1CCC[C@H](O)CCC/C=C/c2cc(O)cc(O)c2C(=O)O1 [α-ZEL, α-zearalenol]
[5]
  estrogenic response in combination compared to single substances: significantly enhanced the estrogenic response
[3]; 0.01 to 10 nM
  potency to induce luciferase compared to ZEN: higher potency
[3]
  induced ERα-dependent luciferase expression in concentrations above: > 10 pM
  concentration at which an increase in luciferase activity was initiated: 0.01 nM
[3]; mycoestrogens, 24 h, read-out: EC50 (sigmoidal dose-response curve fit of luciferase induction)
  EC50: 0.057 ± 0.004 nM
[3]; [6]
  Luciferase induction: 95%

## C[C@H]1CCC[C@H](O)CCCCCc2cc(O)cc(O)c2C(=O)O1 [α-zearalanol]
[5]
  estrogenic response in combination compared to single substances: significantly enhanced the estrogenic response
